Measurements as given in patent publication US8222244B2, “Staurosporine derivatives as inhibitors of FLT3 receptor tyrosine kinase activity” (Novartis AG, priority 2001, dated 2012).
Entries after “also recorded” stand apart in the source; their conditions may differ.

How the values were obtained:
[1] = system: human leukemia and lymphoma cell lines that did not have mutant FLT3 receptors; experiment: Cytotoxicity against leukemia and lymphoma cell lines without mutant FLT3 receptors; format: cell-based; settings: at the concentrations required to inhibit the proliferation of FLT3-dependent cell-lines
Ba/F3-FLT3-D835Y cells = settings: in 24-72 hours
Method: (§1) To search for FLT3-targeted compounds, the applicant screened the inhibitory effects of several compounds on two different kinds of assays. • Tyrosine protein kinase assays with purified GST-Flt-3 were carried in a final volume of 30 μL containing 200-1800 ng of enzyme protein. The activity was assayed in the presence or absence of inhibitors, by measuring the incorporation of ^33P from [γ^33P] ATP into appropriate substrates. […] Cell lines expressing two different forms of mutated, activated FLT3 are used: Ba/F3-FLT3-ITD cells expressing a FLT3 mutant with an “Internal Tandem Duplication” (ITD) within the juxtamembrane domain of the receptor. Ba/F3-FLT3-D835Y cells expressing an FLT3 receptor containing a mutation converting […] at position 835 to Tyrosine.
(§2) A cell based assay is utilised to identify inhibitors of mutant FLT3 tyrosine kinase receptors.
(§3) The cell lines used for the initial screening are sublines of Ba/F3 cells that are engineered to express mutant or over-express wild-type (non-mutated) FLT3 following infection with a retrovirus expressing appropriate FLT3 cDNAs. The parent cell line, Ba/F3 is dependent on interleukin-3 for proliferation, and when deprived of IL-3, the cells rapidly cease proliferation and die. The retrovirus expresses FLT3 from the retrovirual LTR and the neo gene from an IRES site.

Ba/F3-FLT3-ITD cells = settings: in 24-72 hours
Method: as §1, §2, §3

human Flt-3 = target: T1, human Flt-3 (Homo sapiens, UniProt P36888); experiment: Tyrosine protein kinase assay with purified GST-Flt-3 (33P incorporation); format: biochemical; settings: at a 1.0 micromolar concentration
T1 construct: expresses the amino acid region amino acids 563-993 of the intra-cytoplasmic kinase domains of human Flt-3; made in house; host or cells: Sf9 insect cells (baculovirus, pFbacG01 donor vector)
T1 sequence (P36888 563-993): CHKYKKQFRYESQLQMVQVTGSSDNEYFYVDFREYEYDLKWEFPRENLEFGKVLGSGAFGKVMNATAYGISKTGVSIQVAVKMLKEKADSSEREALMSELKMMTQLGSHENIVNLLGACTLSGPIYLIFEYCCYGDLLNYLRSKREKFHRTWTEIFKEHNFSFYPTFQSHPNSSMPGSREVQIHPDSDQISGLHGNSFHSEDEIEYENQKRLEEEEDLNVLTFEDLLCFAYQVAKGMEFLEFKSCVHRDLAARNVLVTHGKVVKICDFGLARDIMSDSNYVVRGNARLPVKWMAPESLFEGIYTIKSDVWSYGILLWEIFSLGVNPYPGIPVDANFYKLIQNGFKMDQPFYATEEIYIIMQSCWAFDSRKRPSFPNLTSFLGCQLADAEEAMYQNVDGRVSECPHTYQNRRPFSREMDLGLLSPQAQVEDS
Summary of the method: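 GST-fused Flt-3 cytoplasmic domain, expressed in baculovirus-infected Sf9 cells and purified, phosphorylates substrate with [γ-33P]ATP. Reaction spotted onto PVDF membranes, washed with H3PO4 and ethanol, and incorporated 33P counted by scintillation.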

Molecule | Flt3 Inhibition (percent inhibition of Flt3 kinase activity) (human Flt-3) | also measured
CO[C@@H]1[C@H](N(C)C(=O)c2ccccc2)C[C@H]2O[C@]1(C)n1c3ccccc3c3c4c(c5c6ccccc6n2c5c31)C(=O)NC4 [MIDOSTAURIN, N-[(9S,10R,11R,13R)-2,3,10,11,12,13-hexahydro-10-methoxy-9-methyl-1-oxo-9,13-epoxy-1H,9H-diindolo[1,2,3-gh:3′,2′,1′-Im]pyrrolo[3,4-j][1,7]benzodiazonin-11-yl]-N-methylbenzamide] |  | cytotoxicity [1]: not cytotoxic; also recorded: not cytoxic; G1 cell cycle arrest and apoptosis (Ba/F3-FLT3-D835Y cells): induced both G1 cell cycle arrest and apoptosis; G1 cell cycle arrest and apoptosis (Ba/F3-FLT3-ITD cells): induced both G1 cell cycle arrest and apoptosis
CO[C@@H]1[C@H](N(C)C(=O)c2ccccc2)C[C@H]2O[C@]1(C)n1c3ccccc3c3c4c(c5c6ccccc6n2c5c31)C(=O)NC4=O [154589-96-5, [9S-(9a,10b,11b,13a)]-N-(2,3,10,11,12,13-Hexahydro-10-methoxy-9-methyl-1,3-dioxo-9,13-epoxy-1H,9H-diindolo[1,2,3-gh:3′,2′,1′-lm]pyrrolo[3,4-j][1,7]benzodiazonin-11-yl)-N-methyl-benzamide] | 63% | 
(9a,10b,11b,13a)-N-(2,3,10,11,12,13-Hexahydro-10-methoxy-9-methyl-1-oxo-9,13-epoxy-1H,9H-diindolo[1,2,3-gh:3′,2′,1′-lm]pyrrolo[3,4-j][1,7]benzodiazonin-11-yl)-N-methyl-4-nitro-benzamide [120685-46-3] | 81% | 
COC1C(N(C)C(=O)c2ccc(O)cc2)CC2OC1(C)n1c3ccccc3c3c4c(c5c6ccccc6n2c5c31)C(=O)NC4 [165815-73-6, N-[(9S,10R,11R,13R)-2,3,10,11,12,13-Hexahydro-10-methoxy-9-methyl-1-oxo-9,13-epoxy-1H,9H-diindolo[1,2,3-gh:3′,2′,1′-lm]pyrrolo[3,4-j][1,7]benzodiazonin-11-yl]-4-hydroxy-N-methyl-benzamide] | 91% | 
CNC(=S)N(C)C1CC2OC(C)(C1OC)n1c3ccccc3c3c4c(c5c6ccccc6n2c5c31)C(=O)NC4 (stereo not drawn) [120685-13-4, (9a,10b,11b,13a)-N-(2,3,10,11,12,13-Hexahydro-10-methoxy-9-methyl-1-oxo-9,13-epoxy-1H,9H-diindolo[1,2,3-gh:3′,2′,1′-lm]pyrrolo[3,4-j][1,7]benzodiazonin-11-yl)-N,N′-dimethyl-thiourea] | 91% | 
[9a,10b,11b(S*),13a]-2-(Acetylamino)-2-deoxy-3-O-[1-[[(2,3,10,11,12,13-hexahydro-10-methoxy-9-methyl-1-oxo-9,13-epoxy-1H,9H-diindolo[1,2,3-gh:3′,2′,1′-lm]pyrrolo[3,4-j][1,7]benzodiazonin-11-yl)methylamino]carbonyl]propyl]-a-D-Glucopyranose [149622-60-6] | 76% | 
(9a,10b,11b,13a)-11-[(N-Acetyl-1-deoxymuramoyl)methylamino]-2,3,10,11,12,13-hexahydro-10-methoxy-9-methyl-9,13-epoxy-1H,9H-diindolo[1,2,3-gh:3′,2′,1′-lm]pyrrolo[3,4-j][1,7]benzodiazonin-1-one [149622-63-9] | 98% | 
COC1C(=O)CC2OC1(C)n1c3ccccc3c3c4c(c5c6ccccc6n2c5c31)C(=O)NC4 [178276-05-6, (9S,10S,13R)-2,3,9,10,12,13-Hexahydro-10-methoxy-9-methyl-9,13-epoxy-1H,11H-diindolo[1,2,3-gh:3′,2′,1′-lm]pyrrolo[3,4-j][1,7]benzodiazonine-1,11-dione] | 88% | 
COC1C(N(C)CC(=O)O)CC2OC1(C)n1c3ccccc3c3c4c(c5c6ccccc6n2c5c31)C(=O)NC4 (stereo not drawn) [120685-22-5, [9S-(9a,10b,11b,13a)]-N-(2,3,10,11,12,13-Hexahydro-10-methoxy-9-methyl-1-oxo-9,13-epoxy-1H,9H-diindolo[1,2,3-gh:3′,2′,1′-lm]pyrrolo[3,4-j][1,7]benzodiazonin-11-yl)-N-methyl-glycine] | 98% | 
[9S-(9a,10b,11b,13a)]-(2,3,10,11,12,13-Hexahydro-10-methoxy-9-methyl-1,3-dioxo-9,13-epoxy-1H,9H-diindolo[1,2,3-gh:3′,2′,1′-lm]pyrrolo[3,4-j][1,7]benzodiazonin-11-yl)methyl-carbamic acid, 1,1-dimethylethyl ester [154589-93-2] | 67% | 
COC1C(N(C)C(=O)CNC(=O)OCc2ccccc2)CC2OC1(C)n1c3ccccc3c3c4c(c5c6ccccc6n2c5c31)C(=O)NC4 (stereo not drawn) [125035-78-1, (9a,10b,11b,13a)-[2-[(2,3,10,11,12,13-Hexahydro-10-methoxy-9-methyl-1-oxo-9,13-epoxy-1H,9H-diindolo[1,2,3-gh:3′,2′,1′-lm]pyrrolo[3,4-j][1,7]benzodiazonin-11-yl)methylamino]-2-oxoethyl]-carbamic acid, phenylmethyl ester] | 52% | 

Now from value to molecule, other results behind:

Flt3 Inhibition (percent inhibition of Flt3 kinase activity) (human Flt-3) | Molecule | also measured
85% | (9a,10b,11b,13a)-11-[(N-Acetyl-a-normuramoyl)methylamino]-2,3,10,11,12,13-hexahydro-10-methoxy-9-methyl-9,13-epoxy-1H,9H-diindolo[1,2,3-gh:3′,2′,1′-lm]pyrrolo[3,4-j][1,7]benzodiazonin-1-one [149622-55-9] | 
100% | (9a,10b,11b,13a)-11-[(N-Acetyl-6-amino-6-deoxy-a-isomuramoyl)methylamino]-2,3,10,11,12,13-hexahydro-10-methoxy-9-methyl-9,13-epoxy-1H,9H-diindolo[1,2,3-gh:3′,2′,1′-lm]pyrrolo[3,4-j][1,7]benzodiazonin-1-one [149622-56-0] | 
22% | (9a,10b,11b,13a)-11-[[N-Acetyl-4-O-acetyl-6-O-(1-oxooctadecyl)-1-O-(phenylmethyl)-a-muramoyl]methylamino]-2,3,10,11,12,13-hexahydro-10-methoxy-9-methyl-9,13-epoxy-1H,9H-diindolo[1,2,3-gh:3′,2′,1′-lm]pyrrolo[3,4-j][1,7]benzodiazonin-1-one [149622-62-8] | 
93% | (9a,10b,11b,13a)-11-[(N-Acetyl-6-O-acetyl-1-deoxymuramoyl)methylamino]-2,3,10,11,12,13-hexahydro-10-methoxy-9-methyl-, 11-[(N-acetyl-6-O-acetyl-1-deoxymuramoyl)methylamino]-2,3,10,11,12,13-hexahydro-10-methoxy-9-methyl-9,13-epoxy-1H,9H-diindolo[1,2,3-gh:3′,2′,1′-lm]pyrrolo[3,4-j][1,7]benzodiazonin-1-one [149622-68-4] | 
27% | (9a,10b,11b,13a)-11-[[N-Acetyl-4-O-acetyl-6-O-(1-oxooctadecyl)-a-muramoyl]methylamino]-2,3,10,11,12,13-hexahydro-10-methoxy-9-methyl-9,13-epoxy-1H,9H-diindolo[1,2,3-gh:3′,2′,1′-lm]pyrrolo[3,4-j][1,7]benzodiazonin-1-one [149622-64-0] | 
